Data: patent US20100173917A1, “UREA DERIVATIVES AS ABL MODULATORS” (Ambit Biosciences Corporation, priority 2003, published 2010)
One block for each molecule: values may come before it.

How the values were obtained:
ABL1(DKIN) = target: T1, ABL1(DKIN) (Homo sapiens, UniProt P00519); assay: Phage-display competition binding assay (Kd), ABL1(DKIN)
T1 construct: ABL1(DKIN); fused on or other part: Fused to T7 bacteriophage particles (phage display)
Source text: (§1) The term “ND” represents non-determined values.

ABL1(E255K) = target: T2, ABL1(E255K) (Homo sapiens, UniProt P00519, E255K); assay: Phage-display competition binding assay (Kd), ABL1(E255K)
T2 construct: made in house; host or cells: T7 bacteriophage display
Source text: as §1

ABL1(T3151) = target: T3, ABL1(T3151) (Homo sapiens, UniProt P00519, T315I); assay: Phage-display competition binding assay (Kd), ABL1(T3151)
T3 construct: made in house; host or cells: T7 bacteriophage display
Source text: as §1

ABL1(E274K) = target: T4, ABL1(E274K) (Homo sapiens, UniProt P00519, E255K); assay: Phage-display competition binding assay (Kd), ABL1(E274K)
T4 construct: made in house; host or cells: T7 bacteriophage display
Source text: as §1

ABL1(H396P) = target: T5, ABL1(H396P) (Homo sapiens, UniProt P00519, H396P); assay: Phage-display competition binding assay (Kd), ABL1(H396P)
T5 construct: made in house; host or cells: T7 bacteriophage display
Source text: as §1

ABL1(Y253F) = target: T6, ABL1(Y253F) (Homo sapiens, UniProt P00519, Y253F); assay: Phage-display competition binding assay (Kd), ABL1(Y253F)
T6 construct: made in house; host or cells: T7 bacteriophage display
Source text: as §1

ABL1(Q252H) = target: T7, ABL1(Q252H) (Homo sapiens, UniProt P00519, Q252H); assay: Phage-display competition binding assay (Kd), ABL1(Q252H)
T7 construct: made in house; host or cells: T7 bacteriophage display
Source text: as §1

Compound: CC(C)(C)c1cc(NC(=O)Nc2ccc(Cl)c(C(F)(F)F)c2)no1 [Compound A1, 1-(5-tent-butylisoxazol-3-yl)-3-(4-chloro-3-(trifluoromethyl)phenyl)urea]
Kd (ABL1(DKIN)): > 10 µM

Compound: CC(C)(C)c1cc(NC(=O)Nc2ccc(Br)cc2C(F)(F)F)on1 [Compound A26]
Kd (ABL1(DKIN)): > 10 µM

Compound: COc1ccc(NC(=O)Nc2cc(C(C)(C)C)no2)cc1 [Compound A30]
Kd (ABL1(DKIN)): > 10 µM

Compound: CC(C)(C)c1cc(NC(=O)Nc2ccc(Cl)cc2)on1 [Compound A32]
Kd (ABL1(DKIN)): > 10 µM

Compound: CSc1ccc(NC(=O)Nc2cc(C(C)(C)C)no2)cc1 [Compound A39]
Kd (ABL1(DKIN)): > 10 µM

Compound: CC(C)(C)c1cc(NC(=O)Nc2ccc(Br)cc2C(F)(F)F)no1 [Compound A41]
Kd (ABL1(DKIN)): > 10 µM

Compound: CC(C)(C)c1cc(NC(=O)Nc2ccc(OCCCc3ccncc3)cc2)no1 [Compound G1, 1-(4-(3-(pyridin-4-yl)propoxy)phenyl)-3-(5-tert-butylisoxazol-3-yl)urea]
Kd (ABL1(E255K)): > 10 µM

Compound: CC(C)(C)c1cc(NC(=O)Nc2ccc(OCCc3ccncc3)cc2)no1 [Compound G22]
Kd (ABL1(E255K)): > 10 µM

Compound: CC(C)(C)c1cc(NC(=O)Nc2ccc(OCCc3ccccn3)cc2)no1 [Compound G27]
Kd (ABL1(E255K)): > 10 µM
Kd (ABL1(T3151)): 1 to 10 µM

Compound: CC(C)(C)c1csc(NC(=O)Nc2ccc(OCc3ccccc3)cc2)n1 [Compound G49]
Kd (ABL1(E255K)): > 10 µM

Compound: Cc1ccc(-n2nc(C(C)(C)C)cc2NC(=O)Nc2ccc(Br)cc2C(F)(F)F)cc1 [Compound H13]
Kd (ABL1(DKIN)): > 10 µM

Second part, the molecule after the results:

Kd (ABL1(E255K)): > 10 µM
Compound: Cc1[nH]c(C(=O)Nc2ccc(NC(=O)Nc3cc(C(C)(C)C)on3)cc2)c(C)c1CCC(=O)O [Compound N39]

Kd (ABL1(DKIN)): 0.1 to 1 µM
Compound: CC(C)(C)c1cc(NC(=O)Nc2ccc(NC(=O)Cc3sc(-c4ccc(Cl)cc4)nc3-c3ccccc3)cc2)no1 [Compound N66]

Kd (ABL1(E255K)): > 10 µM
Kd (ABL1(T3151)): > 10 µM
Compound: Cc1ccc(C(=O)Nc2ccc(NC(=O)Nc3nc(C(C)(C)C)cs3)cc2)cc1 [Compound N135]

Kd (ABL1(T3151)): > 10 µM
Compound: CC(C)(C)c1cc(NC(=O)Nc2ccc(NC(=O)c3cccc4nc5cc(O)cc(O)c5cc34)cc2)no1 [Compound N139]

Kd (ABL1(T3151)): > 10 µM
Compound: CC(C)(C)c1cc(NC(=O)Nc2ccc(NC(=O)c3c4c(nc5ccccc35)CCCC4)cc2)no1 [Compound N140]

Kd (ABL1(E255K)): > 10 µM
Compound: CC(C)(C)c1cc(NC(=O)Nc2ccc(NC(=O)c3ccnc4ccccc34)cc2)no1 [Compound N141]

Kd (ABL1(E255K)): > 10 µM
Compound: Cc1ccc(C(=O)Nc2ccc(NC(=O)Nc3cc(C(C)(C)C)on3)cc2)cn1 [Compound N142]

Kd (ABL1(E255K)): > 10 µM
Compound: CC(C)(C)c1cc(NC(=O)Nc2ccc(NC(=O)c3ccc4ccccc4n3)cc2)no1 [Compound N143]

Kd (ABL1(E255K)): > 10 µM
Compound: CC(C)(C)c1cc(NC(=O)Nc2ccc(NC(=O)c3ccc4cccnc4n3)cc2)no1 [Compound N144]

Kd (ABL1(E255K)): > 10 µM
Compound: Cc1ncccc1C(=O)Nc1ccc(NC(=O)Nc2cc(C(C)(C)C)on2)cc1 [Compound N145]

Kd (ABL1(E274K)): > 10 µM
Compound: CC(C)(C)c1cc(NC(=O)Nc2ccc(C(=O)Nc3nccnc3N)cc2)no1 [Compound N157]

Kd (ABL1(H396P)): > 10 µM
Kd (ABL1(Y253F)): > 10 µM
Kd (ABL1(Q252H)): 1 to 10 µM
Kd (ABL1(E255K)): > 10 µM
Kd (ABL1(T3151)): 1 to 10 µM
Compound: COc1cc2nc(Cl)nc(Nc3ccc(NC(=O)Nc4cc(C(C)(C)C)on4)cc3)c2cc1OC [Compound O1, 1-(4-(2-chloro-6,7-dimethoxyquinazolin-4-ylamino)phenyl)-3-(5-tert-butylisoxazol-3-yl)urea]

Kd (ABL1(H396P)): 0.1 to 1 µM
Kd (ABL1(Y253F)): 0.1 to 1 µM
Kd (ABL1(Q252H)): 0.1 to 1 µM
Kd (ABL1(E255K)): 0.1 to 1 µM
Kd (ABL1(T3151)): < 0.1 µM
Kd (ABL1(DKIN)): < 0.1 µM
Compound: COc1cc2ncnc(Nc3ccc(NC(=O)Nc4cc(C(C)(C)C)on4)cc3)c2cc1OC [Compound O5]

Kd (ABL1(T3151)): 0.1 to 1 µM
Compound: COC(=O)c1cccc(Sc2ncc(NC(=O)Nc3cc(C(C)(C)C)on3)s2)c1 [Compound O8]
